Residues, ends and D or L forms follow the SMILES beside them.
Test system: drug-resistant Mycobacterium tuberculosis
Conditions: peptide 10 micrograms per ml, seven days

C[C@@H](O)[C@H](N)C(=O)N[C@@H](CCCCN)C(=O)N1CCC[C@H]1C(=O)N[C@@H](CCCNC(=N)N)C(=O)O [Tuftsin, Thr-Lys-Pro-Arg-OH] (H-TKPR-OH)
% inhibition: 0.0%

— patent US20100210567A1, “USE OF A TUFTSIN AS A THERAPEUTIC AGENT” (priority 2007, published 2010)
